Like-named read-outs stand apart in the source and are kept apart here.
Legend:
Type in all cases: cell-based
S. aureus (ATCC 25923) [1] = assay: Rate of microbicidal effect upon contact (CFU enumeration over time); settings: Staphylococcus aureus, 15 mm disc in approximately 10^8 CFU/ml, ciprofloxacin 1 μg/disc, read-out: killing percentage (inhibition of growth as percentage)
Protocol: (§1) Briefly, 15 millimeter (mm) discs of the microbicidal composite material were cut and placed into 24 well plates containing approximately 10^8 CFU/ml in Nutrient broth of S. aureus (ATCC 25923) & P. aeruginosa (ATCC 9027) respectively and incubated at 37±1° C. At intervals of 1, 5, 15, 30 and 60 minutes, broth samples were drawn and plated on nutrient agar plates and incubated for 24 hours at 37±1° C. for CFU enumeration. Two reference standards (ref-1, and ref-2) [Ref-1: Reference standard-I, includes a test material which is a cotton gauze material bonded with non siloxane based QAS and Ref-2: Reference standard-II includes a test material with active ingredient as silver Test Item refers to the ‘Microbicidal Composite Material’] and a disc containing 1 μg/disc ciprofloxacin. The results are tabulated in table 8 and table 9 as percentage recovery over time. Percentage survival was calculated as number of CFU/ml in test substance/number of CFU/ml in control substance. The killing percentage was calculated as 100-residual percentage.
(§2) FIG. 4 and FIG. 5 show the inhibition of growth as percentage in the Y-axis compared to the untreated control group.

[2] = tested on: P. aeruginosa (ATCC 9027); assay: as above; settings: Pseudomonas aeruginosa, 15 mm disc in approximately 10^8 CFU/ml, ciprofloxacin 1 μg/disc, read-out: killing percentage (inhibition of growth as percentage)
Protocol: as §1, §2

C. albicans = assay: Residual microbes on ZOI disc after transfer to Nutrient broth
Protocol: (§3) After 24 hours, the discs were transferred to Nutrient broth which was then incubated at 37±1° C. for another 24 hours. The broth contents were placed on Nutrient agar plates to measure the residual percentage of microbes present on the disc as a result of remaining on a lawn of bacteria overnight. Percentage survival was calculated as [number of CFU/ml in test substance/number of CFU/ml in control substance]. The killing percentage was calculated as 100-residual percentage. The results are tabulates as under Table-6.

E. coli = assay: as above
Protocol: as §3

S. aureus [3] = assay: as above
Protocol: as §3

P. aeruginosa [4] = assay: as above
Protocol: as §3

S. aureus [5] = assay: Bio film disruption assay (crystal violet, OD 570 nm); settings: Staphylococcus aureus, overnight grown culture, 24 hours, 15 mm disc, Ciprofloxacin 1 ug/ml, read-out: % Inhibition, Percentage Effect in Bio film disruption assay
Protocol: (§4) 15 millimeters (mm) Discs of the microbicidal composite material were cut and placed into 24 well plates containing approximately 10^8 CFU/ml in Tryptic Soy Broth (TSB) of P. aeruginosa and S. aureus respectively and incubated at 37±1° C. for the Bio film Prevention assay. Similarly, 15 millimeter (mm) Discs of the microbicidal composite material were cut and placed into 24 well plates containing overnight grown culture of P. aeruginosa and S. aureus respectively in TSB and further incubated for 24 hours at 37±1° C. for the disruption assay.
(§5) Further, plain filter paper discs were placed in culture control (C) wells with approximately 10^8 CFU/ml of the above bacteria in Tryptic Soy Broth (TSB) for both the Prevention and Disruption assay. After incubation, the contents were removed and washed four times with Phosphate Buffer saline (pH 7.2). A 500 μl of 0.1% crystal violet stain was added to each well and incubated for 20 minutes at room temperature, washed, and dried. Subsequently, 500 μl of ethanol supplemented with 2% acetic acid was added to each well for 30 min. The Optical Density (OD) of stained adherent Bio film was obtained by using a Tecan plate reader at 570 nm wavelength. Percentage inhibitions in the respective assays were calculated in comparison to the control.

P. aeruginosa [6] = assay: as above; settings: Pseudomonas aeruginosa, overnight grown culture, 24 hours, 15 mm disc, Ciprofloxacin 1 ug/ml, read-out: % Inhibition, Percentage Effect in Bio film disruption assay
Protocol: as §4, §5

S. aureus [7] = assay: Bio film prevention assay (crystal violet, OD 570 nm); settings: Staphylococcus aureus, 15 mm disc, Ciprofloxacin 1 ug/ml, versus control, read-out: % Inhibition, Percentage Effect in Bio film prevention assay
Protocol: as §4, §5

P. aeruginosa [8] = assay: as above; settings: Pseudomonas aeruginosa, 15 mm disc, Ciprofloxacin 1 ug/ml, versus control, read-out: % Inhibition, Percentage Effect in Bio film prevention assay
Protocol: as §4, §5

E. coli (ATCC25922) = assay: Zone of inhibition study (disc on agar plate); settings: radius around 12 mm disc, 24 hours at 37±1° C., triplicates, Ciprofloxacin 1 μg/Disc
Protocol: (§6) The microbicidal composite material was tested in triplicates against E. coli (ATCC25922), S. aureus (ATCC 25923), P. aeruginosa (ATCC 9027) and C. albicans (ATCC 90028). The test material was cut as a 12 mm diameter disc and placed on 90 mm agar plates spread with 100 μl of approximately 10^8 CFU/ml of each bacterial strain and incubated at 37±1° C. for 24 hours. For a negative control, a filter paper disc containing no antibiotic was used. The zone of inhibition (Radius in mm) around the discs was measured using a transparent ruler. The results of this test are tabulated as under Table-5.

S. aureus (ATCC 25923) [9] = assay: Zone of inhibition study (disc on agar plate); settings: radius around 12 mm disc, 24 hours at 37±1° C., triplicates
Protocol: as §6

[10] = tested on: P. aeruginosa (ATCC 9027); assay: Zone of inhibition study (disc on agar plate); settings: radius around 12 mm disc, 24 hours at 37±1° C., triplicates
Protocol: as §6

C. albicans (ATCC 90028) = assay: Zone of inhibition study (disc on agar plate); settings: radius around 12 mm disc, 24 hours at 37±1° C., triplicates, Flucanazole 25 μg/Disc
Protocol: as §6

[11] = disc from ZOI assay in Nutrient broth for another 24 hours, CFU/ml versus control

## O=C(O)c1cn(C2CC2)c2cc(N3CCNCC3)c(F)cc2c1=O [Ciprofloxacin]
S. aureus (ATCC 25923) [1]; ATCC25923, 1 min, 1 minute
  inhibition at 1 µg/disc: 0%
S. aureus (ATCC 25923) [1]; ATCC25923, 5 min, 5 minutes
  inhibition at 1 µg/disc: 32%
S. aureus (ATCC 25923) [1]; ATCC25923, 0.25 h, 15 minutes
  inhibition at 1 µg/disc: 86.2%
S. aureus (ATCC 25923) [1]; ATCC25923, 0.5 h, 30 minutes
  inhibition at 1 µg/disc: 79.1%
S. aureus (ATCC 25923) [1]; ATCC25923, 1 h, 60 minutes
  inhibition at 1 µg/disc: 98.8%
[2]; ATCC9027, 1 min, 1 minute
  inhibition at 1 µg/disc: 0%
[2]; ATCC9027, 5 min, 5 minutes
  inhibition at 1 µg/disc: 32.4%
[2]; ATCC9027, 0.25 h, 15 minutes
  inhibition at 1 µg/disc: 87.4%
[2]; ATCC9027, 0.5 h, 30 minutes
  inhibition at 1 µg/disc: 98%
[2]; ATCC9027, 1 h, 60 minutes
  inhibition at 1 µg/disc: 99.9%
C. albicans; 100-residual percentage
  Killing %: 99.9902%
C. albicans; [11]
  Residual %: 0.010%
E. coli; 100-residual percentage
  Killing %: 99.9997%
E. coli; [11]
  Residual %: 0.000%
S. aureus [3]; 100-residual percentage
  Killing %: 99.9921%
S. aureus [3]; [11]
  Residual %: 0.008%
P. aeruginosa [4]; 100-residual percentage
  Killing %: 99.9994%
P. aeruginosa [4]; [11]
  Residual %: 0.001%
S. aureus [5]
  inhibition at 1 µg/mL: 88.2%
P. aeruginosa [6]
  inhibition at 1 µg/mL: 91.4%
S. aureus [7]
  inhibition at 1 µg/mL: 93.1%
P. aeruginosa [8]
  inhibition at 1 µg/mL: 89.8%
E. coli (ATCC25922)
  ZOI (in mm) Mean: 11.00 mm
S. aureus (ATCC 25923) [9]
  ZOI (in mm) Mean: 11.55 mm
[10]
  ZOI (in mm) Mean: 9.50 mm

## OC(Cn1cncn1)(Cn1cncn1)c1ccc(F)cc1F [Flucanazole]
C. albicans (ATCC 90028)
  ZOI (in mm) Mean: 3.60 mm

From patent US9566363B2, “Microbicidal composite material” (priority 2013, dated 2017)
